Literature values in patent US8221792B2 (Farnam Companies, Inc., priority 2005, dated 2012).
Structures can show the parent of a compound that is named as a salt. Where two headings read alike, the source gives them in different places.

How the values were obtained:
[1] = in vivo
[2] = in human
[3] = in dogs

In the case of NCC1(CC(=O)O)CCCCC1 [Gabapentin], the elimination half-life [1] is listed as 5 to 7 h.
For COc1cccc([C@@]2(O)CCCC[C@@H]2CN(C)C)c1 (racemic) [tramadol, rac-(1R,2R)-2-(dimethylaminomethyl)-1-(3-methoxyphenyl)-cyclohexanol], the half-life [2] is listed as 5.6 to 7.0 h and the half-life [3] is listed as 0.8 to 1.7 h.
In the case of COc1cccc(C2(O)CCCCC2CN(C)C)c1 (centres unmarked) [Tramadol HCl], the solubility in water is given as “freely soluble” and the solubility in water (listed as tramadol hydrochloric acid salt) is given as “highly water soluble”.
